# Results as given in PMC3134468, “Functions of Some Capsular Polysaccharide Biosynthetic Genes in Klebsiella pneumoniae NTUH K-2044” (PLoS ONE, 2011).
# Target: T1, WcaG (KP3709) (Klebsiella pneumoniae, UniProt A0ACD7U4D6)
# T1 construct: His-tagged (pET28a), expressed in E. coli BL21 star (DE3)
# Experiment: HPLC product analysis
# Type: biochemical
# Conditions: coupled with Gmd from GDP-mannose, pH 8.0
# Description: HPLC product analysis on WcaG (KP3709) | GDP-mannose+NADPH+KP3711+KP3709
smiles,measurement,value
NC(=O)C1=CN([C@@H]2O[C@H](COP(=O)(O)OP(=O)(O)OC[C@H]3O[C@@H](n4cnc5c(N)ncnc54)[C@H](OP(=O)(O)O)[C@@H]3O)[C@@H](O)[C@H]2O)C=CC1 [NADPH],HPLC product analysis,GDP-mannose+NADPH+KP3711+KP3709
